Measurements as given in ChEMBL document CHEMBL5726724, “Cystathionine-gamma-lyase (CSE) inhibitors” (2019).

Biological target: Cystathionine gamma-lyase (Homo sapiens, UniProt P32929)
Sequence (P32929 whole entry): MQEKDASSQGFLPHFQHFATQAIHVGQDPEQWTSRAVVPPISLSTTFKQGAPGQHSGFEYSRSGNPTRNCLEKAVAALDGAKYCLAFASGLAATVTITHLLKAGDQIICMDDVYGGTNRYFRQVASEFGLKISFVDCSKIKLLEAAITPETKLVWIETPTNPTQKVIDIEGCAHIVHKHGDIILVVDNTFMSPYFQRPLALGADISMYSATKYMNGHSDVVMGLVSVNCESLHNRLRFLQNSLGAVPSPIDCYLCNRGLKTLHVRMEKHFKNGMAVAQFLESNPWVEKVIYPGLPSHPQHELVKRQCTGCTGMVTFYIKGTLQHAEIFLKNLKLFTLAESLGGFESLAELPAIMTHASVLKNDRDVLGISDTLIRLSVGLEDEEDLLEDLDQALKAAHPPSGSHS

Row | SMILES | IC50
1 | C#CC[C@H](N)c1nc(C(F)(F)F)n[nH]1 | > 100 µM
2 | N#CCC(N)C(=O)O (configuration not stated) | < 25 µM
3 | C#CC[C@H](N)c1ncn[nH]1 | < 25 µM
4 | C#CC[C@H](N)c1nc(N)n[nH]1 | > 100 µM
5 | C#CC[C@@H](N)C(=O)O | > 100 µM
6 | C#CC[C@H](N)c1noc(=O)[nH]1 | < 25 µM
7 | C#CCC(N)C(=O)O (configuration not stated) | < 25 µM
